In paper PMC10954694, “Expression of ALS-PFN1 impairs vesicular degradation in iPSC-derived microglia” (Nature Communications, 2024):

Tests used:
[1] = biological target: T1, profilin-1 (PFN1) M114T (Homo sapiens, UniProt P07737, M114T); assay: […]-1H HSQC NMR titration (global fit); DSF; assay type: binding
T1 construct: recombinant, SUMO tag cleaved, 15N labeled

[2] = biological target: T2, profilin-1 (PFN1) WT (Homo sapiens, UniProt P07737); assay: […]-1H HSQC NMR titration (global fit); DSF; assay type: binding
T2 construct: recombinant, SUMO tag cleaved, 15N labeled
T2 sequence (P07737 2-140): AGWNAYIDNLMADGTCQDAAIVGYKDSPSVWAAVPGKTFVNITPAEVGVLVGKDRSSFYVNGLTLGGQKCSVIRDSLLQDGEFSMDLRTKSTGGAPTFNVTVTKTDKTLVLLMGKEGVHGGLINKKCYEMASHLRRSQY

T1 sequence (P07737 2-140 M114T): as the sequence (P07737 2-140) above, with M113T counted along it

CCCCCCCC(=O)OC[C@H](COP(=O)(O)O[C@@H]1[C@H](O)[C@H](OP(=O)(O)O)[C@@H](O)[C@H](O)[C@H]1O)OC(=O)CCCCCCC [PI3P]
Kd [1]: 370 ± 30 µM
Kd [2]: 1880 ± 190 µM
